Results taken from patent US20190327974A1, “SYNERGISTS FOR IMPROVED PESTICIDES” (priority 2017, published 2019).

Experiments:
[1] = test system: Myzus persicae (Green peach aphid); experiment: CPE combined with boronic acid derivatives on small broad bean leaves; format: in vivo; settings: for Percentage of efficacy: boronic acid, where present, 0.2 mg/ml; for toxicity of the boronic acid derivative alone (in words): ANOVAs followed by Newman-Keuls tests, threshold 5%; for insecticidal efficacy of CPE on addition of the compound (in words): CPE at 2.8 g a.i./ha and 5.6 g a.i./ha
Method: […] The treatment was performed with an agricultural nozzle (300 L per hectare) […]. A non-treated control condition were also evaluated in parallel. Statistical analysis of the data was then performed. When the leaves were totally dry, 3 leaves were sampled and infested with 3 wingless adults of M. persicae per leaf fragment.
• T+1 (DAT 1)—One day later the number of adults remaining on the leaves was counted. • T+3 (DAT 3)—3 days after treatment the aphid population was estimated; • T+7 (DAT 7)—7 days after treatment the development of aphid population was estimated.
3 bean leaves fragments per microbox*4 microbox per condition (1 condition is 1 formulation at 1 dose)*9 adult aphids per microbox*4 insecticides (3 chlorpyrifos derivates+clorpyrifos alone)*4 rates+2 controls (1 reference insecticide formulation at one dose and non-treated)*3 assessments timings (DAT+1, DAT+3 and DAT+7).

[2] = test system: Ostrinia nubilalis (European corn borer); experiment: CPE combined with boronic acid derivatives on corn leaves; format: in vivo; settings: for toxicity of the boronic acid derivative alone (in words): some larvae death with 3.10 and 3.7 at 6 DAT
Method: Treatments were performed by spraying a volume of mixture corresponding to 200 l/ha. 4 boxes/condition.
Drying 1 h at 20° C.; Deposit of three leaf fragments per box on water agar (4 box/condition); Infection of each leaf fragment with 4 Ostrinia nubilalis (12 larvae/box); Incubation 18° C./28° C. […] The percentage of mortality was calculated for each assessment times. Statistical analysis of the data was performed with XLSTAT® software (ANOVAs followed by Newman-Keuls tests with a threshold of 5%, see Table below).

[3] = test system: HB-2 and MDA-MB-231 human cell lines; experiment: Cell toxicity, two human cell lines HB-2 and MDA-MB-231; format: cell-based; settings: 48 h, up to 100 μM
Method: FIG. 13 depicts that boronic acids show little cell toxicity. Compounds 1-5 as well as 3.9 and 3.10 were incubated for 48 h with two different human cell lines HB-2 and MDA-MB-231 at 7 concentrations up to 100 μM. Cell viability was measured after 48 h using Cell Titer Glo assay.
A seven-point, two-fold dose response series, with a 100 uM as the upper limit and a DMSO-only control point was generated using an Echo 550 liquid handler (Labcyte Inc.) in 384-well plates. Subsequently, the human breast cell lines MDA-MB-231 (tumorigenic) and HB2 (non-tumorigenic) were seeded (1000 cells/well) using a multi-drop Combi (Thermo Fisher Scientific) on top of the compounds. Plates were then incubated at 37° C. and 5% CO2 for 48 hours upon which cell viability was assessed by adding CellTiter-Glo® (Promega) to the reaction. The luminescence signal was measured on a Pherastar FS multi-mode plate reader (BMG Labtech).

DPP4 = molecular target: T1, DPP4 (Homo sapiens, UniProt P27487); experiment: Protease selectivity panel; format: biochemical; settings: 100 μM compound, n = 2
T1 construct: purchased ENZO
T1 sequence (P27487 whole entry): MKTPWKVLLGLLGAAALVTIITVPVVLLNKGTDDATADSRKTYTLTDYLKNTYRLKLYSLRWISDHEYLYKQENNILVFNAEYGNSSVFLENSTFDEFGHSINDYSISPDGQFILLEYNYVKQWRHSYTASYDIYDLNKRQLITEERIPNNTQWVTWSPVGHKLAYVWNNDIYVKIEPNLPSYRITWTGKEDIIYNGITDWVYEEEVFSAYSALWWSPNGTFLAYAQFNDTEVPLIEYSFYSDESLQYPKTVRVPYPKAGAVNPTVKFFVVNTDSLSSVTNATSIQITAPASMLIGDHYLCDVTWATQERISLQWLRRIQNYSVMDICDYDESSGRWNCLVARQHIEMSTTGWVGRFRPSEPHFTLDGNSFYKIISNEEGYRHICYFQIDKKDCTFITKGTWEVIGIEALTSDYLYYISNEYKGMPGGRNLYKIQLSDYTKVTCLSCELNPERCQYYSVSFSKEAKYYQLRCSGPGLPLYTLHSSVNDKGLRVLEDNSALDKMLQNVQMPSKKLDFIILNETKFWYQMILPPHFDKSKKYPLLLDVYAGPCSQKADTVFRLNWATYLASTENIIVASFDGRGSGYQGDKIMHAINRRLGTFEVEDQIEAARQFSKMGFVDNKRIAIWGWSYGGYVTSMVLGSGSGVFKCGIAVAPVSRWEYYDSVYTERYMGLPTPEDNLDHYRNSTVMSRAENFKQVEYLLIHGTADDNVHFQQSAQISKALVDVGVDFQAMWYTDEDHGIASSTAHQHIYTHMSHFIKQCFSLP
Method: (§1) Test compounds were dissolved in 100% DMSO to make 10 mM stock. Final compound concentration in assay is […]. Compounds were tested in duplicate wells at single concentration and the final concentration of DMSO in all assays was kept at 1%. Five reference compounds, AEBSF, Carfilzomib, Granzyme B Inhibitor II, Dec-RVKR-CMK, and Teneligliptin hydrobromide, were tested in an identical manner with 8 concentration points at 5× dilutions.

Furin = molecular target: T2, Furin (Homo sapiens, UniProt P09958); experiment: Protease selectivity panel; format: biochemical; settings: 100 μM compound, n = 2
T2 construct: purchased R&D Systems
T2 sequence (P09958 108-794): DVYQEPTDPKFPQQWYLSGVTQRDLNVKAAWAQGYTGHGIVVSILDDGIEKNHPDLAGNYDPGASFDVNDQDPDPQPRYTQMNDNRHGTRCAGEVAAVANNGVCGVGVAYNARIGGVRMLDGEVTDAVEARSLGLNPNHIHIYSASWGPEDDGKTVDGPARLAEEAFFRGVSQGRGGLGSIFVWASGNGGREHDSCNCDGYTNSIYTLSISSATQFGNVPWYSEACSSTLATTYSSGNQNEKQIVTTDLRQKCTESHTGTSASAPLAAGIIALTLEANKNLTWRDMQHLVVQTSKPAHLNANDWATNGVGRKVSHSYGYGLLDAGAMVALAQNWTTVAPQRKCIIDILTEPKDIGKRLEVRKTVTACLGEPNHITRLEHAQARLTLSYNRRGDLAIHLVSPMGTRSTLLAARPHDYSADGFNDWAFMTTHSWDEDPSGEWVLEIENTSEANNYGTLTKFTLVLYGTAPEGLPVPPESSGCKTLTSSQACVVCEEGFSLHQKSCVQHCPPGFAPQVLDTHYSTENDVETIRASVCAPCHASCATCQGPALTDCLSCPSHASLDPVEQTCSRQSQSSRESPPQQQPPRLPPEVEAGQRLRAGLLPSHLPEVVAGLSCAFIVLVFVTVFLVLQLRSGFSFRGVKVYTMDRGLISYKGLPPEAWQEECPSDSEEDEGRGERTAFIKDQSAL
Method: as §1

GranzymeK = molecular target: T3, GranzymeK (Homo sapiens, UniProt P49863); experiment: Protease selectivity panel; format: biochemical; settings: 100 μM compound, n = 2
T3 construct: purchased ENZO
T3 sequence (P49863 27-264): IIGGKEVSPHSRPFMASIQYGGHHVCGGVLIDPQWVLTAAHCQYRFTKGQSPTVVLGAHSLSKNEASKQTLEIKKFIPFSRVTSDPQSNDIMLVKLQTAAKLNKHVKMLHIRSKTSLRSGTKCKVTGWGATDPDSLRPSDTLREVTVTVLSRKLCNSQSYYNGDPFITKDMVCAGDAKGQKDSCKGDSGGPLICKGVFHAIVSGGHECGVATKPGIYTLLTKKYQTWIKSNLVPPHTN
Method: as §1

PSMB5 = molecular target: T4, PSMB5 (Homo sapiens, UniProt P28074); experiment: Protease selectivity panel; format: biochemical; settings: 100 μM compound, n = 2
T4 construct: purchased BOSTON-BIOCHEM
Method: as §1

Prolyl Oligopeptidase = molecular target: T5, Prolyl Oligopeptidase (Homo sapiens, UniProt P48147); experiment: Protease selectivity panel; format: biochemical; settings: 100 μM compound, n = 2
T5 construct: purchased R&D Systems
T5 sequence (P48147 1-710): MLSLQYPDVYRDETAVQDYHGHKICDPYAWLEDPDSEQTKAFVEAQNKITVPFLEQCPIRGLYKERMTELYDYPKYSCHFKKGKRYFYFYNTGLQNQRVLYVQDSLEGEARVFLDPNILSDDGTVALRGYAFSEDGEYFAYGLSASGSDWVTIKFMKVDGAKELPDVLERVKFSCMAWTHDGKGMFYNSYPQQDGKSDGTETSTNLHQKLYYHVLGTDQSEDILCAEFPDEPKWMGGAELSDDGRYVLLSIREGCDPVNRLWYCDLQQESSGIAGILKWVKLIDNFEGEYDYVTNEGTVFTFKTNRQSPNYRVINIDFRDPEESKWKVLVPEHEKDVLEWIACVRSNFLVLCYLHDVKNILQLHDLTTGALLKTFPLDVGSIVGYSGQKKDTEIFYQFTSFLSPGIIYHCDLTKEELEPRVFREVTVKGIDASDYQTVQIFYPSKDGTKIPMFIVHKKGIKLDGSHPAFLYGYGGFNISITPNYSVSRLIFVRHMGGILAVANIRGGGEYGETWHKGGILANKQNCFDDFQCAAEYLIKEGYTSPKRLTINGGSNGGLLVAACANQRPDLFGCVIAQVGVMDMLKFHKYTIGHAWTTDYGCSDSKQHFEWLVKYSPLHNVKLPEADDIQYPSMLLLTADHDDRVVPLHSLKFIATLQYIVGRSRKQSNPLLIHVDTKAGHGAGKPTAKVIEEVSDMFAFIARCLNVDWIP
Method: as §1

Spinesin = molecular target: T6, Spinesin (Homo sapiens, UniProt Q9H3S3); experiment: Protease selectivity panel; format: biochemical; settings: 100 μM compound, n = 2
T6 construct: purchased R&D Systems
T6 sequence (Q9H3S3 218-457 limits assumed): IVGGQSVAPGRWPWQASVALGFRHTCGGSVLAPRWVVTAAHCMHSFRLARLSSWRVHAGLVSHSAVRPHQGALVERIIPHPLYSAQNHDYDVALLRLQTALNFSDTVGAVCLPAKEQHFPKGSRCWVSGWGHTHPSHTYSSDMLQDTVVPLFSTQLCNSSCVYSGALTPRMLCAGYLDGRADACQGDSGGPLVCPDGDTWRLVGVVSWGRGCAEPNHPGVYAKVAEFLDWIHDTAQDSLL
Method: as §1

[4] = 1 DAT, CPE 2.5 g a.i./ha, boronic acid, where present, 0.2 mg/ml
[5] = 1 DAT, CPE 6.24 g a.i./ha, boronic acid, where present, 0.2 mg/ml
[6] = 1 DAT, CPE 15.6 g a.i./ha, boronic acid, where present, 0.2 mg/ml
[7] = 1 DAT, CPE 39 g a.i./ha, boronic acid, where present, 0.2 mg/ml
[8] = 3 DAT, CPE 2.5 g a.i./ha, boronic acid, where present, 0.2 mg/ml
[9] = 3 DAT, CPE 6.24 g a.i./ha, boronic acid, where present, 0.2 mg/ml
[10] = 3 DAT, CPE 15.6 g a.i./ha, boronic acid, where present, 0.2 mg/ml
[11] = 3 DAT, CPE 39 g a.i./ha, boronic acid, where present, 0.2 mg/ml
[12] = 6 DAT, CPE 2.5 g a.i./ha, boronic acid, where present, 0.2 mg/ml
[13] = 6 DAT, CPE 6.24 g a.i./ha, boronic acid, where present, 0.2 mg/ml
[14] = 6 DAT, CPE 15.6 g a.i./ha, boronic acid, where present, 0.2 mg/ml
[15] = 6 DAT, CPE 39 g a.i./ha, boronic acid, where present, 0.2 mg/ml
[16] = 1 DAT, boronic acid alone 0.2 mg/ml, 12 larvae/box
[17] = 3 DAT, boronic acid alone 0.2 mg/ml, 12 larvae/box
[18] = 6 DAT, boronic acid alone 0.2 mg/ml, 12 larvae/box
[19] = 1 DAT, boronic acid alone 0.2 mg/ml
[20] = 3 DAT, boronic acid alone 0.2 mg/ml
[21] = 6 DAT, boronic acid alone 0.2 mg/ml

In the case of `CCOP(=S)(OCC)Oc1nc(Cl)c(Cl)cc1Cl` [CPE, Chlorpyrifos-ethyl], the Percentage of efficacy ([1]; 1 DAT, CPE 0.7) is reported as 38%, the Percentage of efficacy ([1]; 1 DAT, CPE 1.4) is reported as 41% and the Percentage of efficacy ([1]; 1 DAT, CPE 2.8 g a.i./ha) is reported as 32%. The Percentage of efficacy ([1]; 1 DAT, CPE 5.6 g a.i./ha) was 36%, the Percentage of efficacy ([1]; 3 DAT, CPE 0.7) was 20% and the Percentage of efficacy ([1]; 3 DAT, CPE 1.4) was 27%. It also gave a Percentage of efficacy ([1]; 3 DAT, CPE 2.8 g a.i./ha) of 26%, a Percentage of efficacy ([1]; 3 DAT, CPE 5.6 g a.i./ha) of 48% and a Percentage of efficacy ([1]; 7 DAT, CPE 0.7) of 25%. The Percentage of efficacy ([1]; 7 DAT, CPE 1.4) was 25%, the Percentage of efficacy ([1]; 7 DAT, CPE 2.8 g a.i./ha) was 23% and the Percentage of efficacy ([1]; 7 DAT, CPE 5.6 g a.i./ha) was 67%. For the same compound, the Calibration results ([1]; 1 DAT, CPE 1.4) was 33%, the Calibration results ([1]; 1 DAT, CPE 2.8) was 31% and the Calibration results ([1]; 1 DAT, CPE 5.6) was 67%. For the same compound, the Calibration results ([1]; 3 DAT, CPE 1.4) was 51%, the Calibration results ([1]; 3 DAT, CPE 2.8) was 79% and the Calibration results ([1]; 3 DAT, CPE 5.6) was 98%. For the same compound, the Calibration results ([1]; 7 DAT, CPE 1.4) was 51%, the Calibration results ([1]; 7 DAT, CPE 2.8) was 99% and the Calibration results ([1]; 7 DAT, CPE 5.6) was 100%. The “Evaluation of Larvae number, Mean” value [2, 4] was 12, the Percentage of efficacy [2, 4] was 0% and the “Evaluation of Larvae number, Mean” value [2, 5] was 10.7. For the same compound, the Percentage of efficacy [2, 5] was 11%, the “Evaluation of Larvae number, Mean” value [2, 6] was 7.3 and the Percentage of efficacy [2, 6] was 40%. The “Evaluation of Larvae number, Mean” value [2, 7] was 3.3, the Percentage of efficacy [2, 7] was 72% and the “Evaluation of Larvae number, Mean” value [2, 8] was 12. For the same compound, the Percentage of efficacy [2, 8] was 0%, the “Evaluation of Larvae number, Mean” value [2, 9] was 9.7 and the Percentage of efficacy [2, 9] was 16%. For the same compound, the “Evaluation of Larvae number, Mean” value [2, 10] was 7, the Percentage of efficacy [2, 10] was 39% and the “Evaluation of Larvae number, Mean” value [2, 11] was 2. The Percentage of efficacy [2, 11] was 83%, the “Evaluation of Larvae number, Mean” value [2, 12] was 8 and the Percentage of efficacy [2, 12] was 26%. For the same compound, the “Evaluation of Larvae number, Mean” value [2, 13] was 4, the Percentage of efficacy [2, 13] was 63% and the “Evaluation of Larvae number, Mean” value [2, 14] was 3.5. The Percentage of efficacy [2, 14] was 67%, the “Evaluation of Larvae number, Mean” value [2, 15] was 1.3 and the Percentage of efficacy [2, 15] was 88%.
With `Cc1ccc(B(O)O)cc1OCc1ccccc1` [Compound 2] the “cellular toxicity” value [3] was “low toxicity against HB-2”.
In the case of `OB(O)c1cc(Br)cc(N2CCOCC2)c1` [Compound 3.1], the “Evaluation of Larvae number, Mean” value [2, 16] is reported as 12, the “Evaluation of Larvae number, Mean” value [2, 17] is reported as 12 and the “Evaluation of Larvae number, Mean” value [2, 18] is reported as 8.3.
For `CC(C)Oc1cc(Br)cc(B(O)O)c1` [Compound 3.7, 3-Bromo-5-isopropoxyphenylboronic acid], the “toxicity of the boronic acid derivative alone (in words)” value (“toxicity … (in words)” below) [1] was “No significant toxicity”, the “insecticidal efficacy of CPE on addition of the compound (in words)” value [1] was “increased” and the “toxicity … (in words)” value ([2]; 0.2 mg/ml) was “Absence of significant toxicity”. For the same compound, the “efficacy on addition of the compound compared with CPE used alone (in words)” value ([2]; 1 DAT and 3 DAT at the dose of 15.6 g a.i./ha) was “increased significantly the efficacy”, the Percentage of efficacy [2, 19] was 3% and the “Evaluation of Larvae number, Mean” value [2, 16] was 11.7. The Percentage of efficacy [2, 20] was 4%, the “Evaluation of Larvae number, Mean” value [2, 17] was 11 and the Percentage of efficacy [2, 21] was 26%. The “Evaluation of Larvae number, Mean” value [2, 18] was 8.
`OB(O)c1cc(Br)cc(OCc2ccccc2)c1` [Compound 3.9] was tested, and the inhibition at 100 µM (DPP4) was 2%, the inhibition at 100 µM (Furin) was -2% and the inhibition at 100 µM (GranzymeK) was 14%. The inhibition at 100 µM (PSMB5) was 34%, the inhibition at 100 µM (Prolyl Oligopeptidase) was 48% and the inhibition at 100 µM (Spinesin) was 13%. The “cellular toxicity” value [3] was “do not exhibit any cellular toxicity up to 100 μM”.
`OB(O)c1cc(Br)cc(N2CCCC2)c1` [Compound 3] showed an inhibition at 100 µM (DPP4) of 6%, an inhibition at 100 µM (Furin) of 1% and an inhibition at 100 µM (GranzymeK) of 5%. For the same compound, the inhibition at 100 µM (PSMB5) was 3%, the inhibition at 100 µM (Prolyl Oligopeptidase) was 61% and the inhibition at 100 µM (Spinesin) was 26%.
In the case of `OB(O)c1ccc(OCc2ccccc2F)c(Cl)c1` [Compound 5, 3-Chloro-4(2′-fluorobenzyloxy) phenylboronic acid], the “toxicity … (in words)” value [1] is reported as “No significant toxicity”, the “insecticidal efficacy of CPE on addition of the compound (in words)” value [1] is reported as “increased” and the “toxicity … (in words)” value ([2]; 0.2 mg/ml) is reported as “Absence of significant toxicity”. The Percentage of efficacy [2, 19] was 0%, the “Evaluation of Larvae number, Mean” value [2, 16] was 12 and the Percentage of efficacy [2, 20] was 0%. The “Evaluation of Larvae number, Mean” value [2, 17] was 12, the Percentage of efficacy [2, 21] was 4% and the “Evaluation of Larvae number, Mean” value [2, 18] was 10.3. The “cellular toxicity” value [3] was “low toxicity against HB-2”.
